“Also recorded” adds a separate entry of the source.
Experiments:
[1] = tested on: cutaneous squamous cell carcinoma cell colonies (SCC cells); test: Drug resistance screen of squamous carcinoma cell colonies in microbubble well arrays, CalceinAM/PI live/dead staining; format: cell-based
Description: To enrich for the sphere cells, established colonies were cultured in the presence of a chemotherapeutic agent (e.g. Cisplatin). Traditional chemotherapeutic agents work by killing rapidly dividing cells, one of the main properties of most cancer cells. This means that chemotherapy also harms cells that divide rapidly under normal circumstances. Most chemotherapeutic drugs work by impairing mitosis (cell division), effectively targeting fast-dividing cells and inducing apoptosis. After Day 7 the cell culture media was changed and 10 uM or 10 nM cisplatin and incubated for 2 to 7 days, respectively. After which the chips were transferred into fresh media prior to a live/dead staining with CalceinAM/PI followed by stem cell marker analysis.

[2] = tested on: multi-cellular tumor spheroids; conditions: microbubble well array based perfusion system; cited from earlier work

| Structure (SMILES) | surviving sphere cells as share of initial cells seeded in the MB well array ([1]; 10 μM Cisplatin for 48 hr, CalceinAM (live) / propidium iodide (dead) staining, colonies from one or two cells per MB well) | drug resistance of spheroid versus spread cell morphology (live/dead staining) ([1]; established colonies, 10 uM or 10 nM cisplatin for 2 to 7 days, respectively, CalceinAM/PI) | resistance of spheroid cells versus adherent cells to treatment [2] |
| --- | --- | --- | --- |
| N.N.[Cl][Pt][Cl] [Cisplatin] | ~5% | the spheroid cells have greater resistance in response to chemo drug than the spread cell; also recorded: sphere cells exhibit drug resistance | – |
| COc1cccc2c1C(=O)c1c(O)c3c(c(O)c1C2=O)C[C@@](O)(C(=O)CO)C[C@@H]3O[C@H]1C[C@H](N)[C@H](O)[C@H](C)O1 [doxorubicin] | – | – | spheroid cells are more resistant to doxorubicin treatment than adherent cells |
